We go through three compounds from patent US11492361B2, “Compounds useful in HIV therapy” (GlaxoSmithKline Intellectual Property Development Limited, priority 2018, dated 2022).

Experiment [1] concerns Jurkat HIV-luciferase clones. Kind of experiment: Jurkat latency reversal assay. The format is cell-based. The note with it: Homo sapiens, Jurkat. Summed up: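 Three pooled Jurkat HIV-luciferase clones (C16, I15, N6; 5,000 cells/well, maintained with 500 nM EFV) exposed to 3-fold, 14-point titrations (10 μM to 2.1 pM, 0.5% DMSO) in duplicate for 48 h at 37 °C. Luciferase luminescence read; EC50 and maximal % activation versus vehicle from four-parameter logistic fit.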

Experiment [2] concerns p100/p52. Description: p100/p52 Western blot (WB) assay. The format is cell-based, human. As to conditions: Homo sapiens, PBMC, 24 h, read-out: p100/p52 Western Blot (WB) EC50 (nM). The method, then:
Cell cultures were set up to evaluate several SMACm compounds. Frozen PBMC cells from healthy donors were thawed and plated in 2 ml deepwell plates at 2×10^6 cells/ml. Serial dilutions of each compound was carried out as a 7 fold 1:6 dilution with the starting final dose of 1000 nM. Cells were then combined with compound and place at 37° for 24 hrs. The following day cells were pelleted and placed at −80 until lysis.
In preparation for cell lysis, the frozen cell pellets and an aliquot of NP40 Cell Lysis Buffer (Invitrogen, Part #FNN0021), as well as an aliquot of 10× Protease Inhibitor Cocktail (Sigma, Part #P-2714) are thawed on ice. Once thawed, the complete lysis buffer is prepared by adding 10% final volume PI cocktail to the NP40 buffer and then adding in sufficient volume of 0.1 M PMSF (Sigma, Part #93482) and 1 M DTT (Sigma, Part #43816) to create a final concentration of 1 mM each in the complete lysis buffer. Cell lysis is then carried out by resuspending each cell pellet in 30 μL per 10^6 cells then incubating on ice for 30 minutes with vigorous vortexing every 10 minutes. The lysed cells are then centrifuged at 13K RPM for 10 minutes at 4° C. in a refrigerated microcentrifuge. The supernatants (lysates) are then transferred into new microcentrifuge tubes and either stored at −80° or utilized immediately for protein concentration and Western blot analysis.
Protein concentration for each lysate is determined using a detergent compatible Bradford assay (Pierce, Part #23246) following the manufacturer's microplate instructions.
Capillary Western analysis were performed using the ProteinSimple Jess System. A total of 1 ug of cell lysate was prepared according to the provided protocol supplied by ProteinSimple. The primary antibody for p100/p52 (Cell, Signaling #3017) is diluted 1:10 for use in the Jess system. The 12-230 kDa Jess Seperation Module capillary cartridges Separation Module (SM-W004) is used in conjunction with the Anti-Rabbit Secondary NIR conjugate (043-819). The Separation module includes prefilled plates that the samples, primary and secondary antibodies, as well as protein normalization reagent and diluents are loaded onto to perform separation and detection. Once the assay has run, the data is then analyzed utilizing the Compass software provided by ProteinSimple.
Alternatively to capillary electrophoresis, traditional immunoblot assays were carried out, 10 μg of cell lysate was loaded per well into 4-20% Tris-Glycine SDS-PAGE gels. Protein from the SDS-PAGE gels were transferred to Turbo Midi PVDF Transfer Packs (BioRad) using the “Mixed MW” protocol for one Midi Format Gel (constant 2.5 A up to 25V, for 7 minutes) of the Trans-Blot Turbo Transfer System (Bio-Rad) with premade Trans-Blot per the manufacturer's instructions. After transfer, PVDF membranes were blocked in 5% bovine serum albumin (BSA) in 1×TBS (BioRad) with 0.1% Tween-20 for 1 hour at room temperature with gentle rocking. Primary antibodies were added and incubated overnight at 4° C. (anti-p100/p52, Cell Signaling Technology #3017, 1:1000; anti-Actin-HRP conjugate, Abcam #49900, 1:30,000). Following primary staining, the membrane washed three times with 1× Tris Buffered Saline (TBS)+0.1% TWEEN® 20 for 10 minutes each wash. After washing, the membrane was incubated in 5% BSA in 1×TBS+0.1% TWEEN® 20 with the appropriate secondary antibody for 2 hours at room temperature. Following secondary stain the membrane was washed twice for 10 minutes with 1×TBS+0.1% TWEEN® 20 followed by a 10-minute wash with 1×TBS. The membrane was then patted dry with filter paper and an image was captured of the undeveloped membrane on the ChemiDoc MP Imaging System using Image Lab software (BioRad). Sufficient ECL reagent (GE Healthcare) was used to cover the membrane and a series of images were taken starting with 0.001 second and doubling to tripling the exposure time until the luminescence from the developed membrane saturated the image. […]

The subject of another experiment is NFKB2. Kind of experiment: NFkB2 gene induction. It is filed as cell-based, human. The note with it: Homo sapiens, CD4+ T, 24 h, read-out: NFkB2 gene induction EC50 (nM). The procedure: 5×10^5 normal donor CD4 T cells were treated for 24h with serial dilutions of compounds starting at 1.0 μM at 6 fold, 7 places. Total RNA was isolated using the RNEasy Mini kit (Qiagen) per the manufacturer's instructions. The following TaqMan primer probe sets were sourced from Applied Biosystems: Hs00174517_m1 (NFKB2) and Hs02800695 (HPRT1). TaqMan-based real-time PCR (Fast Virus 1-Step Master Mix, Applied Biosystems) was used to amplify host genes of interest. Gene expression was normalized to HPRT1 and comparative threshold cycle (CT) method (ΔΔCT) was used for relative fold change of gene expression as compared to untreated cells. The data was analyzed by QuantStudio3 Real-Time PCR System.

Experiment [3] deals with cell-associated HIV RNA (HIV gag RNA) in CD4+ T cells. The note with it: background statement, primary cells / resting CD4+ T cells; cited from earlier work.
For experiment [4], the system named is p100/p52. As to conditions: background statement, primary cells; cited from earlier work.
Experiment [5] deals with Jurkat HIV-luciferase clones. As to conditions: background statement; cited from earlier work.
[6] abbreviates: Table 4 summary, read-out: Jurkat EC50.

Counter-ions that a name gives are not always drawn. Like-named read-outs stand apart in the source and are kept apart here.

With `CN[C@@H](C)C(=O)N[C@H]1CCS[C@H]2CC(C)(C)[C@@H](C(=O)N[C@H](COCC#CC#CCOC[C@@H](NC(=O)[C@H]3N4C(=O)[C@@H](NC(=O)[C@H](C)NC)CCS[C@H]4CC3(C)C)c3ccccc3)c3ccccc3)N2C1=O` [compound 33, (4S,4′S,7S,7′S,9aS,9a′S)-N,N′-((1S,1′S)-(hexa-2,4-diyne-1,6-diylbis(oxy))bis(1-phenylethane-2,1-diyl))bis(8,8-dimethyl-4-((S)-2-(methylamino)propanamido)-5-oxooctahydropyrrolo[2,1-b][1,3]thiazepine-7-carboxamide) dihydrochloride], the EC50 came out at 5.5 nM in experiment [1] (48 h), 5.5 nM in experiment [1] (setting [6]), 158 nM with p100/p52 [2] and 46 nM with NFKB2.
With `CC[C@H](NC(=O)[C@H](C)NC)C(=O)N1C[C@@H](O)C[C@H]1Cc1c(-c2[nH]c3cc(F)ccc3c2C[C@@H]2C[C@H](O)CN2C(=O)[C@H](CC)NC(=O)[C@H](C)NC)[nH]c2cc(F)ccc12` [Birinapant TL32711], in experiment [3], the “HIV caRNA induction” value is “not potent”. In the experiment with p100/p52 [4], the p100-p52 conversion result is given as “not potent”. For the same compound, the “potency in cell line assays / Jurkat (HIV latency reversal)” value in experiment [5] is given as “not potent”.
As for `CN[C@@H](C)C(=O)N[C@H]1CCS[C@H]2CC(C)(C)[C@@H](C(=O)N[C@H]3c4ccccc4C[C@H]3OCC#CC#CCO[C@@H]3Cc4ccccc4[C@@H]3NC(=O)[C@H]3N4C(=O)[C@@H](NC(=O)[C@H](C)NC)CCS[C@H]4CC3(C)C)N2C1=O` [compound 13, (4S,4′S,7S,7′S,9aS,9a′S)-N,N′-((1S,1′S,2R,2′R)-(hexa-2,4-diyne-1,6-diylbis(oxy))bis(2,3-dihydro-1H-indene-2,1-diyl))bis(8,8-dimethyl-4-((S)-2-(methylamino)propanamido)-5-oxooctahydropyrrolo[2,1-b][1,3]thiazepine-7-carboxamide) dihydrochloride], the EC50 in experiment [1] (48 h) was found to be 9.3 nM; in experiment [1] (setting [6]), 9.3 nM; in the experiment with p100/p52 [2] it was 12.6 nM; with NFKB2 it was 73 nM.
